Results taken from patent US20200289645A1, “TREATMENTS AND METHODS FOR CONTROLLING HYPERTENSION” (Georgetown University, priority 2017, published 2020).
“Also recorded” adds a separate entry of the source.

How the values were obtained:
[1] = tested on: isolated renal afferent arterioles; assay: Isolated perfused renal afferent arteriole contractility; type: cell-based, mice
Description: FIG. 4 depicts the effect of BP1 on isolated renal afferent arteriole contractility. 4A, Isolated perfused renal afferent arteriole mounted on a perfusion pipette with diameter recorded. The internal diameter is 10 to 11 micrometers under control conditions (=100%). 4B to 4D, Impact of BP1 induction and/or FGF2 knockout (FGF2−/−) on angiotensin II (AngII) or norepinephine (NE) contractility. 4B, Effect of conditional BP1 expression (BP1 ON/OFF). […] The effect of AngII in FGF2−/− mice is shown for comparison (see panel C). 4C, Effect of AngII in afferent arterioles from FGF2−/− mice. […] BP1 alone or FGF2 alone are shown for comparison. 4D, Effect of NE in afferent arterioles from wt and FGF2−/− mice. Contractility induced by NE is not affected in FGF2−/− mice.
Isolated vessels provide an approach for the analysis of vascular function that is not affected by systemic cardiovascular regulation in the intact animal. BP1 up-regulation related to human hypertension was found in the kidneys that are key organs in systemic blood pressure regulation. Thus, the impact of BP1 expression was evaluated in isolated renal afferent arterioles that are the major renal resistance vessels. […] Addition of AngII to this preparation leads to a concentration-dependent constriction. […] Thus, the AngII contractile effect depends on FGFR signaling in isolated vessels as well as in arterioles in vivo (FIG. 3B).
The blockade of AngII effects in vessels from wt mice by an FGFR kinase inhibitor (FIG. 4B) corroborates the crucial role of FGF signaling for AngII efficacy. It is noteworthy that vessels from FGF2−/− mice still contracted in response to other ligands. For example, the effect of norepinephrine (NE) was indistinguishable between FGF2−/− and wt controls (FIG. 4D) indicating a selective crosstalk between AngII and FGF signaling. Renal AngII receptor 1 (AT1R) mRNA was not changed upon induction of BP1 expression or in FGF2−/− mice.
Because FGF2 and BP1 are extracellularly acting proteins, recombinant proteins were added to renal afferent arterioles from FGF2−/− mice to assess if this would rescue AngII vasoconstriction.

FGF2−/− mice = assay: Telemetric MAP in FGF2-/- mice after exogenously administered AngII; type: in vivo; details: FGF2−/− relative to wild-type mice
Description: Kidneys contain amongst the highest concentrations of FGF2 protein that is immobilized in the extracellular matrix and can be released by BP1. To assess a contribution by FGF2, the efficacy of AngII was investigated and the crosstalk with BP1 in renal afferent arterioles from FGF2−/− mice. […] Also, the effect of exogenously administered AngII on MAP was reduced.

cremaster arterioles = assay: Cremaster arteriole contractility in vivo (superfusion, intravital microscopy); set-up: species or system mice
Description: FIG. 3 depicts the effect of the induction of BP1 expression on cremaster arteriole contractility in vivo. 3A, Representative images of a single arteriole in a live animal at baseline, and after constriction or dilation by superfusion with AngII or acetylcholine respectively. The vessel diameter is recorded by intravital microphotography. 3B, Dose-response of AngII on arteriole diameter in mice with BP1 OFF (open symbols) or ON (for 48 hours; closed symbols). The FGFR kinase inhibitor PD173074 (PD) was administered intraperitoneally to a subset of animals (red symbols). […] 3C, Dose response of Phenylephrine (PE) on cremaster arteriole diameter in mice with BP1 OFF (open symbols) or ON (for 48 hours; closed symbols). Mean±SEM, n=4 animals/group.
To evaluate whether conditional BP1 expression sensitized resistance vessels in vivo, cremaster arterioles were exposed in anesthetized mice and superfused locally with vasoconstrictor or -dilator ligands. Representative intravital microscopic images of an arteriole at baseline, with AngII (constriction) or acetylcholine (dilation) superfusion is shown in FIG. 3A. […] This sensitization was prevented by pretreatment of animals with the FGFR kinase inhibitor PD173074 23 (FIG. 3B).
Thus, phenylephrine (PE) was selected as a ligand that activates alphal-adrenergic receptors. […] Neither the EC50 (2 μM) nor the maximal effect of PE were different between the BP1 ON and OFF groups (FIG. 3C). Thus, conditional expression of BP1 sensitizes arterioles to AngII in vivo. This sensitization was dependent on FGFR signaling.

[2] = tested on: conscious transgenic mice; assay: Mean arterial pressure (MAP) by telemetry in conscious conditional BP1 transgenic mice; type: in vivo; details: night time MAP
Description: FIG. 2 depicts the effect of conditional expression of the BP1 transgene and of inhibitors on mean arterial pressure (MAP) and heart rate (HR). 2A, 2B, Circadian changes in MAP (A) and HR (B) by telemetry of conscious mice. Averages for 10 days before (BP1 OFF, open symbols) and 10 days after the induction of the BP1 transgene (BP1 ON, closed symbols) relative to the 24 hour clock time. Dark and light periods are indicated. Mean±SEM values (for n=10 time points) from one representative animal (total n=6). P<0.0001 by non-linear regression analysis and ANOVA. 2C, Effect of induction of BP1 transgene expression on night time MAP. Gene expression was induced by switching from a tetracycline containing to a regular chow (+DOX to −DOX; open and filled circles). Non-transgenic littermates (non-TG; triangles) were subjected to the same diet schedule. Mean±SEM of night time MAP; n=6 per group. ANOVA analysis of BP1 ON versus OFF or versus control group. ***, P<0.0001. 2D, 2E, Effect of treatment with candesartan (D) or tempol (E) on night time MAP of animals with the BP1 transgene OFF or ON. Mean±SEM; n=5 per group. *, P<0.05; **, P<0.01; ***, P<0.0001 by ANOVA.
To test the effect of conditional expression of BP1, mean arterial pressure (MAP) was monitored by telemetry in conscious transgenic mice. Under control conditions (BP1 OFF) there was a circadian rhythm of MAP that varied by 20 mm Hg between periods of activity (night time) and rest (day time). A sinus wave function described the day/night variation of the data (FIG. 2A). […] This overall increase in MAP coincided with a significant decrease in the heart rate and a dampened amplitude of circadian regulation (FIG. 2B). The increase of blood pressure occurred within two days of a switch to the tetracycline-free, regular diet in parallel with the induction of the BP1 transgene (FIG. 2C).
The increase in MAP and decrease in heart rate after induction of BP1 expression (FIG. 2A,B) was reminiscent of an angiotensin-like vasopressor effect that depends on reactive oxygen species (ROS) signaling. […]

`CC[C@H](C)[C@H](NC(=O)[C@H](Cc1ccc(O)cc1)NC(=O)[C@@H](NC(=O)[C@H](CCCNC(=N)N)NC(=O)[C@@H](N)CC(=O)O)C(C)C)C(=O)N[C@@H](Cc1c[nH]cn1)C(=O)N1CCC[C@H]1C(=O)N[C@@H](Cc1ccccc1)C(=O)O` [AngII, Angiotensin II] was tested, and the “AngII effect in afferent arterioles after conditional BP1 transgene expression” value ([1]; BP1 ON versus OFF) was “increases the AngII effect; also recorded: significantly enhanced effect”, the “contraction of afferent arterioles from FGF2-/- mice” value ([1]; FGF2−/− mice) was “abolished; also recorded: failed to induce a contraction” and the “effect of exogenously administered AngII on MAP” value (FGF2−/− mice) was “reduced”.

In the case of `CCN(CC)CCCCNc1ncc2cc(-c3cc(OC)cc(OC)c3)c(NC(=O)NC(C)(C)C)nc2n1` [PD173074], the “effect on AngII constriction of afferent arterioles” value ([1]; 100 nM pretreatment of vessels) is reported as “inhibited the effect of AngII”, the “effect on AngII response in control animals” value (cremaster arterioles; BP1 OFF, intraperitoneal) is reported as “small and insignificant effect” and the “effect on BP1-induced sensitization to AngII vasoconstriction” value (cremaster arterioles; BP1 ON, pretreatment, intraperitoneal) is reported as “prevented”.

For `CNC[C@H](O)c1cccc(O)c1` [PE, phenylephrine], the “sensitization of vessels by BP1 expression” value (cremaster arterioles; BP1 ON versus OFF) was “did not sensitize” and the EC50 (cremaster arterioles; Mus musculus, not different between BP1 ON and OFF groups, read-out: EC50 of PE on cremaster arteriole diameter) was 2 µM.

In the case of `CC1(C)CC(O)CC(C)(C)N1[O]` [Tempol, tempol], the “effect on basal MAP” value ([2]; BP1 OFF) is reported as “reduced basal MAP”, the “effect on increase of MAP after BP1 induction” value [2] is reported as “prevented the increase in MAP after BP1 induction” and the “effect on increase of MAP after BP1 induction” value ([2]; listed as tempol) is reported as “prevented”.

`NC[C@H](O)c1ccc(O)c(O)c1` [norepinephrine] was tested, and the “contractility in FGF2-/- versus wt afferent arterioles” value [1] was “indistinguishable” and the “contractility in FGF2-/- versus wt afferent arterioles” value ([1]; listed as NE) was “not affected”.

In the case of “FGF2: recombinant fibroblast growth factor 2 protein”, the “rescue of AngII vasoconstriction in afferent arterioles from FGF2-/- mice” value ([1]; recombinant proteins added, 20 ng/ml for 30 min) is reported as “did not impact the AngII response”.
